According to patent US10167262B2, “Herbicidal substituted 3-arylpyrazoles” (FMC CORPORATION, priority 2014, dated 2019):

How the values were obtained:
Format in all cases: in vivo
[1] = system: waterhemp_RES2, (ALS & HPPD resistant common waterhemp, Amaranthus rudis); assay: Test E postemergence greenhouse test, plant response rating 0-100; conditions: scale 0 to 100
Protocol: At the same time, plants from these crop and weed species and also waterhemp_RES1, (ALS & Triazine resistant common waterhemp, Amaranthus rudis), and waterhemp_RES2, (ALS & HPPD resistant common waterhemp, Amaranthus rudis) were planted in pots containing Redi-Earth® planting medium (Scotts Company, 14111 Scottslawn Road, Marysville, Ohio 43041) comprising spaghnum peat moss, vermiculite, wetting agent and starter nutrients were treated with postemergence applications of test chemicals formulated in the same manner. Plants ranged in height from 2 to 18 cm for postemergence treatments (1- to 4-leaf stage).
Treated plants and controls were maintained in a greenhouse for 14 to 21 days, after which time all species were compared to controls and visually evaluated. Plant response ratings, summarized in Table E, are based on a scale of 0 to 100 where 0 is no effect and 100 is complete control. A dash (-) response means no test result.

[2] = system: barnyardgrass (Echinochloa crus-galli); assay: Test B flooded paddy test, plant response rating 0-100; conditions: Flood, 250 g ai/ha; scale 0 to 100 (0 no effect, 100 complete control); 13 to 15 days
Outline: (§1)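 In-water treatment: compound dosed into 3 cm flood over soil, water level unchanged throughout. Controls run alongside; visual assessment at day 13–15.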

[3] = system: sedge, umbrella (small-flower umbrella sedge, Cyperus difformis); assay: as above; conditions: Flood, 250 g ai/ha; scale 0 to 100 (0 no effect, 100 complete control); 13 to 15 days
Outline: as §1

rice (Oryza sativa) = assay: as above; conditions: Flood, 250 g ai/ha; scale 0 to 100 (0 no effect, 100 complete control); 13 to 15 days
Outline: as §1

[4] = system: ducksalad (Heteranthera limosa); assay: as above; conditions: Flood, 250 g ai/ha; scale 0 to 100 (0 no effect, 100 complete control); 13 to 15 days
Outline: as §1

[5] = system: barnyardgrass (Echinochloa crus-galli); assay: Test C pre-/postemergence greenhouse test, plant response rating 0-100; conditions: Postemergence; for Plant response rating, Barnyardgrass: scale 0 to 100
Outline: (§2)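 Pre-emergence soil and post-emergence foliar sprays were applied simultaneously to seeded loam–sand pots and to 1–4-leaf plants in peat medium; greenhouse holding lasted 13–15 days, then plants were scored visually from 0 (no effect) to 100 (complete control).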

[6] = system: oilseed rape (Brassica napus); assay: as above; conditions: Postemergence; for Plant response rating, Oilseed Rape: scale 0 to 100
Outline: as §2

[7] = system: waterhemp (common waterhemp, Amaranthus rudis); assay: as above
Outline: as §2

[8] = Postemergence, 250 g ai/ha, scale 0 to 100

Structure (SMILES)	Plant response rating, Waterhemp_RES2 ([1]; 31 g ai/ha)	Plant response rating, Waterhemp_RES2 ([1]; 125 g ai/ha)	Plant response rating, Waterhemp_RES2 ([1]; 250 g ai/ha)	Plant response rating, Waterhemp_RES2 ([1]; 500 g ai/ha)	Plant response rating, Barnyardgrass [2]	Plant response rating, Sedge, Umbrella [3]	Plant response rating, Rice (rice (Oryza sativa))	Plant response rating, Ducksalad [4]	Plant response rating (0 to 100), Barnyardgrass ([5]; 62 g ai/ha)	Plant response rating, Barnyardgrass ([5]; 125 g ai/ha)	Plant response rating, Barnyardgrass ([5]; 250 g ai/ha)	Plant response rating (0 to 100), Oilseed Rape ([6]; 62 g ai/ha)	Plant response rating (0 to 100), Oilseed Rape ([6]; 125 g ai/ha)	Plant response rating, Oilseed Rape ([6]; 250 g ai/ha)	Plant response rating (0 to 100), Waterhemp ([7]; Postemergence, 62 g ai/ha)	Plant response rating (0 to 100), Waterhemp ([7]; Postemergence, 125 g ai/ha)	Plant response rating, Waterhemp [7, 8]	also measured
O=C(c1ccccc1)c1cn(S(=O)(=O)CCl)nc1-c1cc(Cl)cc(Cl)c1 [Compound 1]	40	35	98	98	0	0	0	0	0	0	0	50	80	95	90	90	98	Plant response rating (0 to 100), Barnyardgrass ([5]; 31 g ai/ha): 0
O=C(c1ccccc1)c1cn(S(=O)(=O)C(F)(F)F)nc1-c1cc(Cl)cc(Cl)c1 [Compound 2]	0	85	95	98	0	0	0	0	0	0	0	70	70	90	85	85	100	Plant response rating, Waterhemp_RES2 ([1]; 62 g ai/ha): 65; Plant response rating, Barnyardgrass ([5]; 500 g ai/ha): 0; Plant response rating, Oilseed Rape ([6]; 500 g ai/ha): 90; Plant response rating, Waterhemp ([7]; Postemergence, 500 g ai/ha, scale 0 to 100): 100; Plant response rating, Waterhemp ([7]; Preemergence, 0 to 100 scale (0 no effect, 100 complete control), rate 500 g ai/ha): 100
